# Structures can show the parent of a compound that is named as a salt.
# Assays:
# [1] = Cytotoxicity range-finder (relative survival), with and without S-9; format: cell-based, mouse; conditions: mouse
# Procedure: (§1) More specifically, levobupivacaine HCl was assayed for its ability to induce mutation at the tk locus (5-trifluorothymidine resistance) in mouse lymphoma cells using a fluctuation protocol. The study consisted of a cytotoxicity range-finder followed by two independent experiments, each conducted in the absence and presence of metabolic activation by an Aroclor 1254-induced rat liver post-mitochondrial fraction (S-9). For reference, bupivacaine HCl was tested concurrently in the cytotoxicity range-finder.
# (§2) A wide range of concentrations were selected for the cytotoxicity range-finder experiments, separated by two-fold intervals and ranging from 31.25 to 1000 μg/ml for levobupivacaine HCl and from 62.5 to 2000 μg/ml for bupivacaine HCl (limited by solubility in both cases).
# mouse lymphoma cells = experiment: as above; format: cell-based
# Procedure: as §1, §2
# [2] = test system: tk locus (5-trifluorothymidine resistance) in mouse lymphoma cells; experiment: Mutation at the tk locus (5-trifluorothymidine resistance) in mouse lymphoma cells, fluctuation protocol, with and without S-9
# Procedure: as §1
# For reference, three doses of bupivacaine HCl were tested in the absence of S-9 (250, 500 and 750 μg/ml), and two doses in the presence of S-9 (250, 500 μg/ml). The lowest five doses of levobupivacaine HCl and all reference doses of bupivacaine HCl were selected to determined viability and 5-trifluorothymidine resistance, 2 days after treatment.
# In the second experiment, the dose range was modified slightly for both levobupivacaine HCl and bupivacaine HCl.
# Negative (solvent) and positive control treatments were included in each mutation experiment in the absence and presence of S-9.
# [3] = test system: heart; central nervous system (CNS); conditions: cited from earlier work
# [4] = test system: children having outpatient herniorrhaphy; experiment: Double-blind randomized placebo-controlled clinical study: IlIH nerve block in children having outpatient herniorrhaphy; format: in vivo, human (children ages 6 mo to 12 y)
# Procedure: In a clinical study, the suitability of levobupivacaine in paediatric surgery was evaluated. This was a double-blind randomized, placebo-controlled study, to determine the safety and effectiveness of levobupivacaine for field block in children having outpatient herniorrhaphy. More specifically, otherwise healthy children ages 6 mo to 12 y presenting for outpatient herniorrhaphy were randomized to receive either ilioinguinal/iliohytpogastric (IlIH) nerve block(s) with 0.25 ml/kg 0.5% levobupivacaine per side operated, or no block, at the completion of surgery.
# [5] = test system: patients requiring hernia repair; experiment: Further study in patients requiring hernia repair: rescue analgesia; format: in vivo, human
# Procedure: In a further study, using levobupivacaine in patients requiring hernia repair, 45% of patients in the 0.5% levobupivacaine group compared with 73.3% of patients in the no block required at least one dose of rescue analgesia (p=0.167). The majority of the children who required rescue (91.4%) required two or fewer doses of rescue analgesia. […] The median patient in the 0.5% levobupivacaine group first requested rescue medication after at least 118 minutes, compared with 31 minutes in the no block group (p=0.041).
# heart = conditions: in vitro; Vanhoutte et al 1991, Denson et al 1992; cited from earlier work
# [6] = 0.25 ml/kg 0.5% per side operated, vs no block
structure (smiles),measurement,setting,value
CCCCN1CCCC[C@H]1C(=O)Nc1c(C)cccc1C [levobupivacaine HCl],viability,"[1]; absence of S-9, 1000 μg/ml",150%
same,viability,"[1]; presence of S-9, 1000 μg/ml",9.1%
same,cell survival (in words),"mouse lymphoma cells; 31.25 to 1000 μg/ml, absence and presence of S-9",Cells survived all doses
same,"mutagenicity, overall conclusion",[2],not mutagenic
CCCCN1CCCCC1C(=O)Nc1c(C)cccc1C (stereo not drawn) [bupivacaine HCl],viability,"[1]; absence of S-9, 500 μg/ml",100%
same,viability,"[1]; presence of S-9, 500 μg/ml",12.4%
same,cytotoxicity (in words),"mouse lymphoma cells; bupivacaine HCl (reference), top two doses, 1000 and 2000 μg/ml",completely toxic
c1ccc2c(c1)cc1ccc3cccc4ccc2c1c34 [benzo[a]pyrene],"mutation, positive control",[2]; with S-9,clear increases in mutation
CCCCN1CCCCC1C(=O)Nc1c(C)cccc1C (racemic) [bupivacaine],CNS side-effects (in words),[3]; at higher doses,undesirable central nervous system (CNS) side-effects
same,cardiotoxicity (in words),[3]; background,"cardiotoxic, having depressant electrophysiological and mechanical effects on the heart"
same,death in patients (in words),[3]; including women in childbirth and Bier's block,produced death in a number of patients
same,"dosage limitation by cytotoxicity, summary",[2],limited by cytotoxicity
same,"genotoxicity, summary",[2],positive for genotoxicity
"CCCCN1CCCC[C@H]1C(=O)Nc1c(C)cccc1C [levobupivacaine, (S)-1-butyl-N-(2,6-dimethylphenyl)-2-piperidinecarboxamide]","safety and effectiveness for IlIH block, conclusion",[4]; 0.25 ml/kg 0.5% levobupivacaine per side operated,safe and effective
same,adverse events specifically attributable to levobupivacaine,[4]; 0.25 ml/kg 0.5% per side operated,absence of any adverse events
same,interval to rescue analgesia,[4]; [6],longer interval to rescue analgesia
same,rescue analgesic doses,[4]; [6],fewer rescue analgesic doses
same,CHEOPS,"[4]; at 15, 20, 30 and 60 min, 0.25 ml/kg 0.5% per side operated, vs no block",lower CHEOPS
same,time to first request for rescue medication (in words),[5]; 0.5% levobupivacaine group vs no block group,significantly longer
same,patients requiring at least one dose of rescue analgesia,"[5]; 0.5% levobupivacaine group, no block 73.3%, p=0.167",45%
same,median time to first request for rescue medication,"[5]; 0.5% levobupivacaine group, no block 31 minutes, p=0.041",at least 118 minutes
same,cardiotoxicity relative to dextrobupivacaine and racemic bupivacaine,heart,less cardiotoxic than dextrobupivacaine and racemic bupivacaine
same,"genotoxicity, summary",[2],completely negative
O=[N+]([O-])c1cc[n+]([O-])c2ccccc12 [4-nitroquinoline 1-oxide],"mutation, positive control",[2]; without S-9,clear increases in mutation

# Source: patent US5910502A, “Use of levobupivacaine in paediatric surgery” (priority 1997, dated 1999)
